Structures are written as SMILES. Bounds are passed on as bounds.

This experiment has as its system Endogenous Huntingtin Protein. As to the kind of experiment: Endogenous Huntingtin Protein Assay (ELISA-based MSD electrochemiluminescence). It is filed as cell-based. The following applies: Table 1. How it is done:
Compounds of Formula (I) or Formula (II) were tested using the Meso Scale Discovery (MSD) Assay provided in International Application No. PCT/US2016/066042, filed on Dec. 11, 2016 and claiming priority to U.S. Provisional Application 62/265,652 filed on Dec. 10, 2015, the entire contents of which are incorporated herein by reference.
The Endogenous Huntingtin Protein assay used in Example 1 was developed using the ELISA-based MSD electrochemiluminescence assay platform.
Endogenous Huntingtin Protein Assay
Meso Scale Discovery (MSD) 96-well or 384-well plates were coated overnight at 4° C. with MW1 (expanded polyglutamine) or MAB2166 monoclonal antibody (for capture) at a concentration of 1 μg/mL in PBS (30 μL per well). Plates were then washed three times with 300 μL wash buffer (0.05% Tween-20 in PBS) and blocked (100 μL blocking buffer; 5% BSA in PBS) for 4-5 hours at room temperature with rotational shaking and then washed three times with wash buffer.
Samples (25 μL) were transferred to the antibody-coated MSD plate and incubated overnight at 4° C. After removal of the lysates, the plate was washed three times with wash buffer, and 25 μL of #5656S (Cell signaling; rabbit monoclonal) secondary antibody (diluted to 0.25 μg/mL in 0.05% Tween-20 in blocking buffer) was added to each well and incubated with shaking for 1 Hour at room temperature. Following incubation with the secondary antibody, the wells were rinsed with wash buffer after which 25 μL of goat anti-rabbit SULFO TAG secondary detection antibody (required aspect of the MSD system) (diluted to 0.25 μg/mL in 0.05% Tween-20 in blocking buffer) was added to each well and incubated with shaking for 1 hour at room temperature. After rinsing three times with wash buffer, 150 μL of read buffer T with surfactant (MSD) were added to each empty well, and the plate was imaged on a SI 6000 imager (MSD) according to manufacturers' instructions provided for 96- or 384-well plates.
(In general: An ELISA detects its analyte on a solid surface through an enzyme-linked reagent.)
With `Cc1cn2nc(-c3cnc4nc(N(C)C5CC(C)(C)NC(C)(C)C5)sc4n3)ccc2n1` [Compound 141, N-methyl-6-(2-methylimidazo[1,2-b]pyridazin-6-yl)-N-(2,2,6,6-tetramethylpiperidin-4-yl)[1,3]thiazolo[4,5-b]pyrazin-2-amine], the IC50 was not above 100 nM. Turning to `CN1C[C@H](F)[C@H](Nc2nc3nnc(-c4ccc(-c5cn[nH]c5)cc4O)cc3s2)C1` [Compound 336, 2-(6-{[(3R,4S)-4-fluoro-1-methylpyrrolidin-3-yl]amino}[1,3]thiazolo[4,5-c]pyridazin-3-yl)-5-(1H-pyrazol-4-yl)phenol], the IC50 lay within 1000 to 3000 nM. In the case of `Cc1cc(-c2cc(O)c3nc(C4CCNCC4)sc3c2)cc2cn(C)nc12` [Compound 134, 6-(2,7-dimethyl-2H-indazol-5-yl)-2-(piperidin-4-yl)-1,3-benzothiazol-4-ol] it was 100 to 500 nM. In the case of `Cc1cc(-c2ccc3nc(N(C)C4CC(C)NC(C)C4)sc3c2)cc2cn(C)nc12` (stereo not shown) [Compound 175, 6-(2,7-dimethyl-2H-indazol-5-yl)-N-(2,6-dimethylpiperidin-4-yl)-N-methyl-1,3-benzothiazol-2-amine] it was not above 100 nM; in that of `CCCN1CCC(N(C)c2nc3nnc(-c4ccc(-c5cn[nH]c5)cc4O)cc3s2)CC1` [Compound 393, 2-{6-[methyl(1-propylpiperidin-4-yl)amino][1,3]thiazolo[4,5-c]pyridazin-3-yl]-5-(1H-pyrazol-4-yl)phenol], 1000 to 3000 nM; in that of `CN1CCC[C@H](N(C)c2nc3nnc(-c4ccc(-c5cn[nH]c5)cc4O)cc3s2)C1` [Compound 352, 2-(6-{methyl[(3S)-1-methylpiperidin-3-yl]amino}[1,3]thiazolo[4,5-c]pyridazin-3-yl)-5-(1H-pyrazol-4-yl)phenol], not above 100 nM. `Cc1cn2nc(-c3cc(F)c4nc(N(C)[C@H]5CCN[C@@H](C)C5)sc4c3)ccc2n1` [Compound 258, 4-fluoro-N-methyl-6-(2-methylimidazo[1,2-b]pyridazin-6-yl)-N-[(2S,4S)-2-methylpiperidin-4-yl]-1,3-benzothiazol-2-amine] returned an IC50 not above 100 nM. In the case of `COc1cc(-c2cc(F)c3nc(C4=CCNCC4)sc3c2)nn2cc(C)nc12` [Compound 145, 6-[4-fluoro-2-(1,2,3,6-tetrahydropyridin-4-yl)-1,3-benzothiazol-6-yl]-8-methoxy-2-methylimidazo[1,2-b]pyridazine] it was not above 100 nM; in that of `Cc1cn2cc(-c3cc4sc(N(C)C5CC(C)(C)NC(C)(C)C5)nc4cn3)nc2c(C)n1` [Compound 296, 6-(6,8-dimethylimidazo[1,2-a]pyrazin-2-yl)-N-methyl-N-(2,2,6,6-tetramethylpiperidin-4-yl)[1,3]thiazolo[4,5-c]pyridin-2-amine], not above 100 nM; in that of `Cc1cn2cc(-c3cnc4nc(OC5CC(C)(C)NC(C)(C)C5)sc4n3)cc(F)c2n1` [Compound 180, 6-(8-fluoro-2-methylimidazo[1,2-a]pyridin-6-yl)-2-[(2,2,6,6-tetramethylpiperidin-4-yl)oxy][1,3]thiazolo[4,5-b]pyrazine], 100 to 500 nM. In the case of `Cc1cn2cc(-c3ccc4nc(N(C)C5CC6CCCC(C5)N6)sc4n3)cc(C#N)c2n1` (stereo not drawn) [Compound 279, 6-{2-[(3-exo)-9-azabicyclo[3.3.1]non-3-yl(methyl)amino][1,3]thiazolo[5,4-b]pyridin-5-yl}-2-methylimidazo[1,2-a]pyridine-8-carbonitrile], the IC50 was not above 100 nM. To `Cc1cc(-c2ccc3nc(N(C)C4CC(C)(C)NC(C)(C)C4)sc3c2)cc2cn(C)nc12` [Compound 21, 6-(2,7-dimethyl-2H-indazol-5-yl)-N-methyl-N-(2,2,6,6-tetramethylpiperidin-4-yl)-1,3-benzothiazol-2-amine] belongs 100 to 500 nM.

Molecule `CN(C)C1CCN(c2nc3ccc(-c4ccc5nn(C)cc5c4)cc3s2)CC1` [Compound 28, N,N-dimethyl-1-[6-(2-methyl-2H-indazol-5-yl)-1,3-benzothiazol-2-yl]piperidin-4-amine] displayed an IC50 of 1000 to 3000 nM.

For orientation: IC50 means the concentration that inhibits the measured activity by half. Higher therefore signals weaker potency in that assay.
